Laboratory results reported in ChEMBL document CHEMBL4041469, “The replacement of the 2-methoxy substituent of N-((6,6-diphenyl-1,4-dioxan-2-yl)methyl)-2-(2-methoxyphenoxy)ethan-1-amine improves the selectivity for 5-HT1A receptor over α1-adrenoceptor and D2-like receptor subtypes” (Eur J Med Chem, 2017).
Activity calls are given as the source filed them. No cut-off for these calls is given here.

Experiments:
D(3) dopamine receptor = D(3) dopamine receptor (Homo sapiens, UniProt P35462); assay: Displacement of [3H]N-methylspiperone from recombinant human D3 receptor expressed in HEK293 cell membranes after 1 hr by liquid scintillation counting method
D(2) dopamine receptor = D(2) dopamine receptor (Homo sapiens, UniProt P14416); assay: Displacement of [3H]N-methylspiperone from recombinant human D2 receptor expressed in HEK293 cell membranes after 1 hr by liquid scintillation counting method
[1] = Selectivity index, ratio of Ki for recombinant human alpha-1a adrenergic receptor expressed in CHO cell membranes to Ki for recombinant human 5HT1A receptor expressed in human HeLa cell membranes
D(4) dopamine receptor = target: T1, D(4) dopamine receptor (Homo sapiens, UniProt P21917); assay: Displacement of [3H]N-methylspiperone from recombinant human D4 receptor expressed in HEK293 cell membranes after 1 hr by liquid scintillation counting method
T1 sequence (P21917 whole entry): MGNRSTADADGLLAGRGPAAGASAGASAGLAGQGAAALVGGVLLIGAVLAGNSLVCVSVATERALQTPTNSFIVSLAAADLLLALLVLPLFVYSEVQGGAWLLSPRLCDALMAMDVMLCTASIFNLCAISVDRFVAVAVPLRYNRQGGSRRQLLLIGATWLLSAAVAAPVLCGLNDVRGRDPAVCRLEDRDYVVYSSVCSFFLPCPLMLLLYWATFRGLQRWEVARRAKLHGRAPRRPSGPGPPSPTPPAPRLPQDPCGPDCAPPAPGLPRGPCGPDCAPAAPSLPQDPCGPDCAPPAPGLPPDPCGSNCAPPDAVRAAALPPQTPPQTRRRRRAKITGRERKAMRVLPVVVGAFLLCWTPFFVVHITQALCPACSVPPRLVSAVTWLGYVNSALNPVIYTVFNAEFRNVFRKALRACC

[2] = target: T2, 5-hydroxytryptamine receptor 1A (Homo sapiens) (UniProt P08908); assay: Agonist activity at recombinant human 5HT1A receptor expressed in human HeLa cell membranes assessed as stimulation of [35S]GTPgammaS binding preincubated for 20 mins followed by [35S]GTPgammaS addition measured after 30 mins by liquid scintillation counting method; format: functional
T2 sequence (whole entry): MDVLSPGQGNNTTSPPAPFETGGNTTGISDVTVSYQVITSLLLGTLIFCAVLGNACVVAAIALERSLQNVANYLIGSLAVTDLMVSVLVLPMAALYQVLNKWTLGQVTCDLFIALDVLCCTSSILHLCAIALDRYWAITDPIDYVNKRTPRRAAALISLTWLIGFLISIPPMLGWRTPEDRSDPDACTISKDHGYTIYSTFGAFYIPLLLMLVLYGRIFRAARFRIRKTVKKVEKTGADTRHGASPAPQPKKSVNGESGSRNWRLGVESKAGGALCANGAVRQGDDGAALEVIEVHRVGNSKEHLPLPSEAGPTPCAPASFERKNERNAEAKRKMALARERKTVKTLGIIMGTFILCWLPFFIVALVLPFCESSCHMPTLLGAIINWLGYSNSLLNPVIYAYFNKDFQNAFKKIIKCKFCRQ

[3] = Selectivity index, ratio of Ki for recombinant human alpha-1d adrenergic receptor expressed in CHO cell membranes to Ki for recombinant human 5HT1A receptor expressed in human HeLa cell membranes
[4] = Selectivity index, ratio of Ki for recombinant human D2 receptor expressed in HEK293 cell membranes to Ki for recombinant human 5HT1A receptor expressed in human HeLa cell membranes
[5] = Selectivity index, ratio of Ki for recombinant human D3 receptor expressed in HEK293 cell membranes to Ki for recombinant human 5HT1A receptor expressed in human HeLa cell membranes
[6] = Selectivity index, ratio of Ki for recombinant human alpha-1b adrenergic receptor expressed in CHO cell membranes to Ki for recombinant human 5HT1A receptor expressed in human HeLa cell membranes
[7] = Selectivity index, ratio of Ki for recombinant human D4 receptor expressed in HEK293 cell membranes to Ki for recombinant human 5HT1A receptor expressed in human HeLa cell membranes
[8] = target: T3, Alpha-1B adrenergic receptor (Homo sapiens, UniProt P35368); assay: Displacement of [3H]prazosin from recombinant human alpha-1b adrenergic receptor expressed in CHO cell membranes after 30 mins by liquid scintillation counting method
T3 sequence (P35368 whole entry): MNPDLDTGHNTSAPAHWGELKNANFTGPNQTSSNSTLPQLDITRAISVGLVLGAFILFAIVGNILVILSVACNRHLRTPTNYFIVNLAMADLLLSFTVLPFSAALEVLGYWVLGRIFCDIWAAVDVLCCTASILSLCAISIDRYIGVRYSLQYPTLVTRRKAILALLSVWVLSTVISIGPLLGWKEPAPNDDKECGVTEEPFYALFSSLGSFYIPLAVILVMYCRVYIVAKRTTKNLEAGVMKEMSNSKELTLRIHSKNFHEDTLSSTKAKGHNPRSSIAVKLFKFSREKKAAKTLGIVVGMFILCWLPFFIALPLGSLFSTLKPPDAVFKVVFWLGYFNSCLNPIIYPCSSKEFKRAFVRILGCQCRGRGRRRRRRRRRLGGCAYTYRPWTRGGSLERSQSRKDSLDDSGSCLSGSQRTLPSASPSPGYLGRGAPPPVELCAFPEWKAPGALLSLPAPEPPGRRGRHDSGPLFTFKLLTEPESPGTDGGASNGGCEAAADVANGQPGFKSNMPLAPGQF

[9] = target: T4, Alpha-1D adrenergic receptor (Homo sapiens, UniProt P25100); assay: Displacement of [3H]prazosin from recombinant human alpha-1d adrenergic receptor expressed in CHO cell membranes after 30 mins by liquid scintillation counting method
T4 sequence (P25100 whole entry): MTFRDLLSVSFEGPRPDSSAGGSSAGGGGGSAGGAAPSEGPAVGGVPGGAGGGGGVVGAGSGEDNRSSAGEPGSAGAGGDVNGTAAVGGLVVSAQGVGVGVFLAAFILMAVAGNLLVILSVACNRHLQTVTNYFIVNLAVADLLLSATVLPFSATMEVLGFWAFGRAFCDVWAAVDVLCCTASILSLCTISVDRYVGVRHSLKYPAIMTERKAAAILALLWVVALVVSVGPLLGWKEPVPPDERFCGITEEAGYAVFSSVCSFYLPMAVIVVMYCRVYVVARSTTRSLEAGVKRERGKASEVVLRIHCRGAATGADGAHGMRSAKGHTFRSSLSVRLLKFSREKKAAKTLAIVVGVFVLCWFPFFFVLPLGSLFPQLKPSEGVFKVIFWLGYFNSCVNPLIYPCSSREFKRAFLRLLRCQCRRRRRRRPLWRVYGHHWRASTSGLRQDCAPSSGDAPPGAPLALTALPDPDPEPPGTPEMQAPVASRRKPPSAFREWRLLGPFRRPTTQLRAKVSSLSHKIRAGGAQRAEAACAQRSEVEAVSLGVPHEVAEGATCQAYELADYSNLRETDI

[10] = target: T5, 5-hydroxytryptamine receptor 1A (Homo sapiens, UniProt P08908); assay: Displacement of [3H]8-OH-DPAT from recombinant human 5HT1A receptor expressed in human HeLa cell membranes after 30 mins by liquid scintillation counting method
T5 sequence (P08908 whole entry): T2 sequence (whole entry)

[11] = target: T6, Alpha-1A adrenergic receptor (Homo sapiens, UniProt P35348); assay: Displacement of [3H]prazosin from recombinant human alpha-1a adrenergic receptor expressed in CHO cell membranes after 30 mins by liquid scintillation counting method
T6 sequence (P35348 whole entry): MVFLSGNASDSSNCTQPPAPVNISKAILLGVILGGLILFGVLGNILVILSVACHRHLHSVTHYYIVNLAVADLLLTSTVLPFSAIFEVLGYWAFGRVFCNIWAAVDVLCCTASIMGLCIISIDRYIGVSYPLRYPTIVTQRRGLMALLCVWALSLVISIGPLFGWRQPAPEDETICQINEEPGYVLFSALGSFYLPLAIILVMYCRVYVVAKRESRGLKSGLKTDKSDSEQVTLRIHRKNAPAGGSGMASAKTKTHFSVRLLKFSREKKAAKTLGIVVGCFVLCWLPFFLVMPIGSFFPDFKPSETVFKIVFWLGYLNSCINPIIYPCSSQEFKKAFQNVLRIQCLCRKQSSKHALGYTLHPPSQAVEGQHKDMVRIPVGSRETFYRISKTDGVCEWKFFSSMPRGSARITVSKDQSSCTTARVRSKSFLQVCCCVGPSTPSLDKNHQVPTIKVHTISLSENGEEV

[12] = target: T2, 5-hydroxytryptamine receptor 1A (Homo sapiens); assay: Agonist activity at recombinant human 5HT1A receptor expressed in human HeLa cell membranes assessed as stimulation of [35S]GTPgammaS binding up to 10 uM preincubated for 20 mins followed by [35S]GTPgammaS addition measured after 30 mins by liquid scintillation counting method relative to 5-HT; format: functional
Mus musculus [13] = assay: Anxiolytic activity in ip dosed CD-1 mouse assessed as increase in latency time to enter dark area administered 30 mins prior to test by light/dark exploration test; format: functional, organism-based
Mus musculus [14] = assay: Anxiolytic activity in CD-1 mouse assessed as increase in time spent in light area at 30 mg/kg, ip administered 30 mins prior to test in presence of 5HT1A receptor antagonist WAY100135 by light/dark exploration test; format: functional, organism-based
Mus musculus [15] = assay: Anxiolytic activity in ip dosed CD-1 mouse assessed as increase in time spent in light area administered 30 mins prior to test by light/dark exploration test; format: functional, organism-based
Mus musculus [16] = assay: Anxiolytic activity in CD-1 mouse assessed as increase in time spent in light area at 2.5 mg/kg, ip administered 30 mins prior to test by light/dark exploration test; format: functional, organism-based
Mus musculus [17] = assay: Anxiolytic activity in CD-1 mouse assessed as increase in latency time to enter dark area at 2.5 mg/kg, ip administered 30 mins prior to test by light/dark exploration test; format: functional, organism-based

Sequence of D(3) dopamine receptor (P35462 whole entry): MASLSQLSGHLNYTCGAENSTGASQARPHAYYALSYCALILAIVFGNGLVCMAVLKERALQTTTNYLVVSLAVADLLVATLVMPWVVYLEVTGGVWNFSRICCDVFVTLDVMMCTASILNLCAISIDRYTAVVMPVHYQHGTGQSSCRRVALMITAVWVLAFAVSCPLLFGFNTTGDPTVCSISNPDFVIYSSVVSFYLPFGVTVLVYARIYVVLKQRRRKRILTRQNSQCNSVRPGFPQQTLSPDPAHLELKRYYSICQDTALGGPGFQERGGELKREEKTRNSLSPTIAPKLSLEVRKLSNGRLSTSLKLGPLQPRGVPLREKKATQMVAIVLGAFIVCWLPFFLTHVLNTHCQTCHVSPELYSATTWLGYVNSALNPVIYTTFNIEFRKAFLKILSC
Sequence of D(2) dopamine receptor (P14416 whole entry): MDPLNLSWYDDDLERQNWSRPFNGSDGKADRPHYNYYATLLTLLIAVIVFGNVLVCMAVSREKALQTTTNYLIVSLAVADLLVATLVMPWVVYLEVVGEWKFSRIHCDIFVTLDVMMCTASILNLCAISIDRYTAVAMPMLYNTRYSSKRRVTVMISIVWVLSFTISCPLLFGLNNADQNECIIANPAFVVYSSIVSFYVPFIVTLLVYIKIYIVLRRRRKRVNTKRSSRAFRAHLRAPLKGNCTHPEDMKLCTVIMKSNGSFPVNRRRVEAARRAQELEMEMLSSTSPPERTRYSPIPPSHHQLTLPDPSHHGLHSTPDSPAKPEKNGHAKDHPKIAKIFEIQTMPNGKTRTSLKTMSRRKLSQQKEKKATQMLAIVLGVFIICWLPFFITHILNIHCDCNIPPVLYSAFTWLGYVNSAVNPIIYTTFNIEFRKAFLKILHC

Structure (SMILES)	pD2 [2]	Ki [8] [µM]	Ki [9] [µM]	Ki [10] [µM]	Ki [11] [µM]	Emax [12] [%]	other results
COc1ccccc1OCCNCC1COCC(c2ccccc2)(c2ccccc2)O1 (racemic)	9.4	–	–	–	–	–	Ki (D(3) dopamine receptor): 0.0132 µM; Ki (D(2) dopamine receptor): 0.0123 µM; Ratio Ki [1]: 42; Ki (D(4) dopamine receptor): 0.00832 µM; Ratio Ki [3]: 2; Ratio Ki [4]: 19; Ratio Ki [5]: 20; Ratio Ki [6]: 85; Ratio Ki [7]: 13
Clc1ccccc1OCCNCC1COCC(c2ccccc2)(c2ccccc2)O1 (racemic)	8.7	0.12	0.00589	0.000794	0.115	66	–
Cc1ccccc1OCCNCC1COCC(c2ccccc2)(c2ccccc2)O1 (racemic)	8.73	0.178	0.00501	0.00112	0.17	59.7	–
COc1cccc(OC)c1OCCNCC1COCC(c2ccccc2)(c2ccccc2)O1 (racemic)	8.28	–	–	–	–	–	–
COc1ccccc1OCCNC[C@H]1COCC(c2ccccc2)(c2ccccc2)O1	9.19	–	–	–	–	–	–
COc1cccc(OC)c1OCCNC[C@@H]1COCC(c2ccccc2)(c2ccccc2)O1	5.88	–	–	–	–	–	–
COc1ccccc1OCCNC[C@@H]1CO[C@H](c2ccccc2)CO1 (racemic)	7.88	–	–	–	–	85.5	–
COc1ccccc1OCCNC[C@@H]1COC[C@H](c2ccccc2)O1 (racemic)	–	–	–	–	–	78.1	–
COCOc1ccccc1OCCNCC1COCC(c2ccccc2)(c2ccccc2)O1 (racemic)	9.41	0.288	0.0794	0.000631	0.282	62.8	Ki (D(3) dopamine receptor): 0.0661 µM; Ki (D(2) dopamine receptor): 0.105 µM; Ratio Ki [1]: 447; Ki (D(4) dopamine receptor): 0.0513 µM; Activity (Mus musculus [13]): Dose-dependent effect; Activity (Mus musculus [14]): inactive; Ratio Ki [3]: 126; Activity (Mus musculus [15]): Dose-dependent effect; Ratio Ki [4]: 166; Ratio Ki [5]: 105; Ratio Ki [6]: 457; Ratio Ki [7]: 81
CN1C(=O)CN=C(c2ccccc2)c2cc(Cl)ccc21	–	–	–	–	–	–	Activity (Mus musculus [16]): Active; Activity (Mus musculus [17]): Active
